Results taken from US9072741B2, “Methods of treating liver fibrosis and pre-cirrhosis with epidermal growth factor receptor inhibitors” (The General Hospital Corporation, priority 2009, dated 2015).

System: DEN-induced liver fibrosis/pre-cirrhosis
Assay: DEN-treated rats, treatment begun at 8, 12 or 15 weeks: Ishak score
Assay type: in vivo, male Wistar rats
Protocol: FIG. 8B is a bar graph depicting Ishak scores in male Wistar rats receiving weekly intraperitoneal injections of 50 mg/kg DEN for 18 weeks and vehicle only (n=8) or 2 mg/kg gefitnib (n=8) beginning at either 8, 12, or 15 weeks. *, significant.
Male Wistar rats received weekly intraperitoneal injections of DEN (50 mg/kg) for 16 weeks. Rats received vehicle control or gefitinib (2 mg/kg) daily beginning at either 8, 12, or 15 weeks and lasting until 18 weeks. To assess the extent of liver disease at the start of each treatment, a subgroup of rats were sacrificed after a two-week washout of DEN and the liver was harvested and processed for analysis. Masson's trichrome stains of liver sections from each animal were analyzed by a blinded pathologist. After 8 weeks and 12 weeks of DEN administration, no macroscopic findings were observed on the surface of the liver (FIG. 8A). […] After 15 weeks of DEN administration, the rats had progressed to late stage cirrhosis which could be observed macroscopically on the surface of the liver (FIG. 8A) as well as microscopically. Rats receiving vehicle or gefitinib were sacrificed at 18 weeks after a two-week washout of DEN. The liver was harvested and processed for analysis. Masson's trichrome stains of liver sections from each animal were scored by a blinded pathologist by the method of Ishak. […]

For `COc1cc2ncnc(Nc3ccc(F)c(Cl)c3)c2cc1OCCCN1CCOCC1` [gefitinib, 4-Quinazolinamine, N-(3-chloro-4-fluorophenyl)-7-methoxy-6-(3-(4-morpholinyl)propoxy)], the “progression of liver fibrosis/pre-cirrhosis (Ishak)” value (2 mg/kg daily beginning at 8 weeks until 18 weeks) was “inhibited the progression of liver fibrosis/pre-cirrhosis” and the “progression of liver fibrosis/pre-cirrhosis (Ishak)” value (2 mg/kg daily beginning at 12 weeks until 18 weeks) was “inhibited the progression of liver fibrosis/pre-cirrhosis”.
